The results in this text go back to patent US10000471B2, “Pyrazole P38 map kinase inhibitors” (Respivert Limited, priority 2010, dated 2018).

One series concerns the target T1, p38 MAPKγ (MAPK12) (Homo sapiens, UniProt P53778).
T1 construct: purchased Invitrogen
T1 sequence (P53778 1-367): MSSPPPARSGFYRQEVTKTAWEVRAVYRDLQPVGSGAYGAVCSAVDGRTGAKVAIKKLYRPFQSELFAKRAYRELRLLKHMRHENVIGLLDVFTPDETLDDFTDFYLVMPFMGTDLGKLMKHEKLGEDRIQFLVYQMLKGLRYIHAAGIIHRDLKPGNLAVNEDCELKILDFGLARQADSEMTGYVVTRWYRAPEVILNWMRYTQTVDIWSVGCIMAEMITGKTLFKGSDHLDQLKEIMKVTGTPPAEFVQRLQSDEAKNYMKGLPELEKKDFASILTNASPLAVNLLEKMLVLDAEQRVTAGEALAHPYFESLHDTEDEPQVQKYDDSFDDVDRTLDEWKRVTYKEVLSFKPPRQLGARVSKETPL
Kind of series: Enzyme inhibition assay (FRET, Z-LYTE), p38 MAPKγ. Format: biochemical. Conditions: read-out: Enzyme Inhibition IC50 p38γ. In outline: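 Recombinant phosphorylated p38 MAPKγ preincubated 2 h at RT with compound in HEPES buffer, then 2 μM FRET peptide and 100 μM ATP added for 1 h; protease development 1 h. Coumarin/fluorescein emission ratio gave phosphorylation; IC50 from concentration-response versus uninhibited control.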

The subject of series [1] is TNFα release in THP-1 cells. Kind of series: LPS-induced TNFα release in THP-1 cells. Format: cell-based, human. Conditions: Homo sapiens. The procedure, abridged:
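Human monocytic THP-1 cells stimulated with 3 μg/mL E. coli LPS for 4 hr; supernatant TNFα measured by sandwich ELISA. Inhibition at each concentration versus vehicle control, IC50 from concentration-response curve.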

The subject of series [2] is IL-8 release in d-U937 cells. Kind of series: LPS-induced IL-8 release in d-U937 cells. Format: cell-based, human. Particulars: Homo sapiens, dU937. In outline: (§1)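 PMA-differentiated (100 ng/ml, 48–72 hr) U937 macrophage-type cells pre-incubated 2 hr with compound, then stimulated 4 hr with 0.1 μg/mL E. coli O111:B4 LPS; supernatant TNFα and IL-8 measured by sandwich ELISA. TNFα inhibition expressed relative to 10 μg/mL BIRB796, giving REC50; IL-8 inhibition versus vehicle, giving IC50.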

The test system of series [3] is ICAM-1 induction in BEAS2B cells. Kind of series: Poly I:C-induced ICAM-1 induction in BEAS2B cells. It is filed as cell-based, human. Conditions: Homo sapiens, BEAS-2B, read-out: PolyIC/ICAM1 IC50 BEAS2B. The procedure, abridged:
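Human bronchial epithelial BEAS2B cells were pre-incubated with compound for 2 hr, then transfected with 1 μg/mL poly I:C. After 18 hr, surface ICAM-1 was measured by cell-based ELISA (OD450-655) and normalized to crystal violet cell counts (OD595). IC50 came from inhibition versus vehicle across the concentration-response curve.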

The subject of series [4] is TNFα release in d-U937 cells. In words: LPS-induced TNFα release in d-U937 cells. It is filed as cell-based, human. Particulars: Homo sapiens, dU937, relative to 10 μg/mL BIRB796, read-out: LPS/TNFα REC50 d-U937. The procedure, abridged: as §1
In series [5] the target is T2, p38 MAPKα isoform (MAPK14) (Homo sapiens, UniProt Q16539).
T2 construct: purchased Invitrogen
Kind of series: Enzyme inhibition assay (FRET, Z-LYTE), p38 MAPKα via MAPKAP-K2 activation. Particulars: read-out: Enzyme Inhibition IC50 p38α. It is filed as biochemical. The procedure, abridged:
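Recombinant p38 MAPKα was preincubated with compound for 2 h at RT. Its activity was measured indirectly through activation/phosphorylation of downstream MAPKAP-K2, with a Z-LYTE FRET peptide read-out (coumarin/fluorescein ratio) after a 1 h development step. IC50 came from concentration-response curves of percent inhibition versus an uninhibited control.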

Series [6] concerns Differentiated U937 cells. In words: Cell viability MTT assay. Format: cell-based, human. Particulars: negative = apparent increase in viability; for MTT Assay (Viability) 4 h d-U937, percentage loss of cell viability: 4 hr in 5% FCS; for MTT Assay (Viability) 24 h d-U937, percentage loss of cell viability: 24 h in 10% FCS. The procedure, abridged: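 Differentiated U937 cells pre-incubated with compound either 4 hr in 5% FCS or 24 h in 10% FCS, then 1 hr MTT. Formazan dissolved in DMSO, absorbance at 550 nm. Percentage viability loss relative to 0.5% DMSO vehicle; apparent increases appear as negative percentages.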
(Formazan colour is commonly taken as a measure of viable cells.)

T2 sequence (Q16539 whole entry, canonical isoform): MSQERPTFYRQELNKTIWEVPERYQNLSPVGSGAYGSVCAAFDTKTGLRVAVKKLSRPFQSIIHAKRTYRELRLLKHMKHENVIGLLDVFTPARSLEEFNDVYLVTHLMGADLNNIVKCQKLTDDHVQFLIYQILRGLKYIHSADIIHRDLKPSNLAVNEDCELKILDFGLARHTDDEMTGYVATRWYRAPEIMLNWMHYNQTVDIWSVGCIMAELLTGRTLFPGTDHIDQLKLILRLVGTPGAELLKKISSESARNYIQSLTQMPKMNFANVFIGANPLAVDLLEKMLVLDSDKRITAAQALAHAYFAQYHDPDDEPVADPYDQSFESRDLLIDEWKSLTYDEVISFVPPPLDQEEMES

For `CNC(=O)Nc1cc(Oc2ccc(NC(=O)Nc3cc(C(C)(C)C)nn3-c3ccc(CO)c(Cl)c3)c(Cl)c2Cl)ccn1` [Example 54, 1-(3-tert-butyl-1-(3-chloro-4-hydroxymethylphenyl)-1H-pyrazol-5-yl)-3-(2,3-dichloro-4-(2-(3-methylureido)pyridin-4-yloxy)phenyl)urea], the IC50 at p38 MAPKγ (MAPK12) was 52.8 nM; in series [1] it was 2.2 nM; in series [2], 3.2 nM; in series [3] it was 2.5 nM; in series [5] it was 87.7 nM. Further, in series [4], the EC50 amounted to 0.3 nM. Also, the “MTT Assay (Viability) 4 h d-U937, percentage loss of cell viability” value in series [6] is −34.9%. In addition, in series [6], the “MTT Assay (Viability) 24 h d-U937, percentage loss of cell viability” value is given as 71.2%.
With `CC(C)(C)c1cc(NC(=O)Nc2ccc(Oc3ccnc(NC(=O)NC4CC4)c3)c(Cl)c2Cl)n(-c2ccc(CO)cc2)n1` [Example 55, 1-(4-(4-(3-(3-tert-butyl-1-(4-hydroxymethylphenyl)-1H-pyrazol-5-yl)ureido)-2,3-dichlorophenoxy)pyridin-2-yl)-3-cyclopropylurea], the IC50 came out at 200 nM on p38 MAPKγ (MAPK12); 4.8 nM in series [1]; 3.1 nM in series [2]; 1.7 nM in series [3]; 50.1 nM in series [5]. Also, the EC50 in series [4] amounted to 1 nM. Further, in series [6], the “MTT Assay (Viability) 4 h d-U937, percentage loss of cell viability” value is −15.0%. For the same compound, the “MTT Assay (Viability) 24 h d-U937, percentage loss of cell viability” value in series [6] was determined as 49.2%.
With `CNC(=O)Nc1cc(Oc2ccc(NC(=O)Nc3cc(C(C)(C)C)nn3-c3ccc(C)cc3)c3ncccc23)ccn1` [Example 56, 1-(3-tert-butyl-1-p-tolyl-1H-pyrazol-5-yl)-3-(5-(2-(3-methylureido)pyridin-4-yloxy)quinolin-8-yl)urea], the IC50 at p38 MAPKγ (MAPK12) came to 194 nM; in series [1], 8.6 nM; in series [2], 4.6 nM; in series [3], 12.3 nM; in series [5], 52.4 nM. Also, the EC50 in series [4] turned out to be 0.9 nM. In addition, the “MTT Assay (Viability) 4 h d-U937, percentage loss of cell viability” value in series [6] is recorded as −25.5%. The “MTT Assay (Viability) 24 h d-U937, percentage loss of cell viability” value in series [6] was −28.0%.
Regarding `CNC(=O)Nc1cc(Oc2ccc(NC(=O)Nc3cc(C(C)(C)C)nn3-c3ccc(OC)cc3)c3ncccc23)ccn1` [Example 57, 1-(3-tert-butyl-1-(4-methoxyphenyl)-1H-pyrazol-5-yl)-3-(5-(2-(3-methylureido)pyridin-4-yloxy)quinolin-8-yl)urea], the IC50 on p38 MAPKγ (MAPK12) stood at 167 nM; in series [1], 14.9 nM; in series [2], 3 nM; in series [3], 142 nM; in series [5] it was 47.3 nM. For the same compound, the EC50 in series [4] was determined as 2.3 nM. The “MTT Assay (Viability) 4 h d-U937, percentage loss of cell viability” value in series [6] is given as −23.6%. In series [6], the “MTT Assay (Viability) 24 h d-U937, percentage loss of cell viability” value is listed as −56.2%.
On to `CNC(=O)Nc1cc(Oc2ccc(NC(=O)Nc3cc(C(C)(C)C)nn3-c3ccc(OC)cc3)c3cccnc23)ccn1` [Example 58, 1-(3-tert-butyl-1-(4-methoxyphenyl)-1H-pyrazol-5-yl)-3-(8-(2-(3-methylureido)pyridin-4-yloxy)quinolin-5-yl)urea], for which the IC50 is 176 nM at p38 MAPKγ (MAPK12); 2.2 nM in series [1]; 3.3 nM in series [2]; 13.2 nM in series [3]; 34.1 nM in series [5]. Moreover, the EC50 in series [4] worked out at 2.1 nM. Further, in series [6], the “MTT Assay (Viability) 4 h d-U937, percentage loss of cell viability” value is −12.4%. In addition, the “MTT Assay (Viability) 24 h d-U937, percentage loss of cell viability” value in series [6] is given as −29.0%.
For `CNC(=O)Nc1cc(Oc2ccc(NC(=O)Nc3cc(C(C)(C)C)nn3-c3ccc(C(=O)OC)cc3)c(Cl)c2Cl)ccn1` [Example 59, methyl 4-(3-tert-butyl-5-(3-(2,3-dichloro-4-(2-(3-methylureido)pyridin-4-yloxy)phenyl)ureido)-1H-pyrazol-1-yl)benzoate], the IC50 at p38 MAPKγ (MAPK12) was 198 nM; in series [1], 2 nM; in series [2] it was 1.9 nM; in series [3], 0.9 nM; in series [5], 125 nM. Besides, the EC50 in series [4] was determined as 1.6 nM. The “MTT Assay (Viability) 4 h d-U937, percentage loss of cell viability” value in series [6] was −24.8%. Besides, the “MTT Assay (Viability) 24 h d-U937, percentage loss of cell viability” value in series [6] is 0.0%.
On to `CNC(=O)Nc1cc(Oc2ccc(NC(=O)Nc3cc(C(C)(C)C)nn3-c3ccc(C(=O)O)cc3)c(Cl)c2Cl)ccn1` [Example 60, 4-(3-tert-butyl-5-(3-(2,3-dichloro-4-(2-(3-methylureido)pyridin-4-yloxy)phenyl)ureido)-1H-pyrazol-1-yl)benzoic acid], for which the IC50 is 12.9 nM on p38 MAPKγ (MAPK12); 22.7 nM in series [1]; 23.5 nM in series [2]; over 163 nM in series [3]; 10.3 nM in series [5]. Moreover, the EC50 in series [4] turned out to be 9.2 nM. Moreover, the “MTT Assay (Viability) 4 h d-U937, percentage loss of cell viability” value in series [6] is reported as −15.4%. Besides, the “MTT Assay (Viability) 24 h d-U937, percentage loss of cell viability” value in series [6] was −52.4%.
For `CNC(=O)Nc1cc(Oc2ccc(NC(=O)Nc3cc(C(C)(C)C)nn3-c3ccc(CO)cc3)c3ncccc23)ccn1` [Example 61, 1-(4-(8-(3-(3-tert-butyl-1-(4-hydroxymethylphenyl)-1H-pyrazol-5-yl)ureido)quinolin-5-yloxy)pyridin-2-yl)-3-methylurea], the IC50 on p38 MAPKγ (MAPK12) came out at 94 nM; in series [1], 2.5 nM; in series [2], 235 nM; in series [3] it was 11.4 nM; in series [5], 32.7 nM. In series [4], the EC50 amounted to 182 nM. Besides, the “MTT Assay (Viability) 4 h d-U937, percentage loss of cell viability” value in series [6] is listed as −31.9%. In addition, the “MTT Assay (Viability) 24 h d-U937, percentage loss of cell viability” value in series [6] is on record as −12.9%.
Consider `CNC(=O)Nc1cc(Oc2ccc(NC(=O)Nc3cc(C(C)(C)C)nn3-c3ccc(CO)cc3)c3cccnc23)ccn1` [Example 62], for which the IC50 worked out at 135 nM at p38 MAPKγ (MAPK12); 7.1 nM in series [1]; 25.8 nM in series [2]; 70.8 nM in series [3]; 37.2 nM in series [5]. In addition, the EC50 in series [4] worked out at 17.6 nM. Besides, in series [6], the “MTT Assay (Viability) 4 h d-U937, percentage loss of cell viability” value is −13.4%. Moreover, in series [6], the “MTT Assay (Viability) 24 h d-U937, percentage loss of cell viability” value is −22.9%.
For the compound `Cc1ccc(-n2nc(C(C)(C)C)cc2NC(=O)Nc2ccc(Oc3ccnc(NC(=O)N(C)C)c3)c(Cl)c2Cl)cc1` [Example 63], the IC50 was 140 nM at p38 MAPKγ (MAPK12); 0.5 nM in series [1]; 11.4 nM in series [2]; 3 nM in series [3]; 28.9 nM in series [5]. Moreover, in series [4], the EC50 is 0.3 nM. Moreover, the “MTT Assay (Viability) 4 h d-U937, percentage loss of cell viability” value in series [6] is recorded as −29.7%. Besides, the “MTT Assay (Viability) 24 h d-U937, percentage loss of cell viability” value in series [6] is 51.6%.
On to `COc1ccc(-n2nc(C(C)(C)C)cc2NC(=O)Nc2ccc(Oc3ccnc(NC(=O)N(C)C)c3)c(Cl)c2Cl)cc1` [Example 64, 3-(4-(4-(3-(3-tert-butyl-1-(4-methoxyphenyl)-1H-pyrazol-5-yl)ureido)-2,3-dichlorophenoxy)pyridin-2-yl)-1,1-dimethylurea], for which the IC50 was 58 nM on p38 MAPKγ (MAPK12); 0.4 nM in series [1]; 15.1 nM in series [2]; 1.5 nM in series [3]; 13.3 nM in series [5]. The EC50 in series [4] amounted to 0.3 nM. For the same compound, the “MTT Assay (Viability) 4 h d-U937, percentage loss of cell viability” value in series [6] is reported as −37.2%. Besides, in series [6], the “MTT Assay (Viability) 24 h d-U937, percentage loss of cell viability” value was determined as 37.2%.
